Experiment [1] addresses Mu-type opioid receptor (Bos taurus, UniProt P79350). In words: Activity was evaluated by inhibition of the binding of 0.8 nM [3H]- DAMGO at Opioid receptor mu 1 binding site.
Experiment [2] deals with Kappa-type opioid receptor (Cavia porcellus, UniProt P41144). In words: Activity was evaluated by inhibition of the binding of 1 nM [3H]U-69593 at Opioid receptor kappa 1 binding site.
For experiment [3], the species on record is Mus musculus. The experiment is described as follows: Antinociceptive action was evaluated by mouse tail flick assay at a dose of 3 nmol on 9 mice. It counts as functional. For orientation: Thermal pain tests record how soon the animal reacts.
The species named for experiment [4] is Mus musculus. In words: Antinociceptive action was evaluated by mouse tail flick assay at a dose of 10 nmol on 5 mice. It counts as functional.
For experiment [5], the species on record is Mus musculus. The experiment is described as follows: Antinociceptive action was evaluated by mouse tail flick assay at a dose of 100 nmol in the presence of morphine on 9 mice. It is filed as functional.
The species entered for experiment [6] is Mus musculus. In words: Antinociceptive action was evaluated by mouse tail flick assay at a dose of 100 nmol in the presence of 3 nmol morphine on 5 mice. It is filed as functional.
The species entered for experiment [7] is Mus musculus. In words: Antinociceptive action was evaluated by mouse tail flick assay at a dose of 300 nmol on 5 mice. It is filed as functional.
For experiment [8], the system named is Mus musculus. In words: Percent activity against delta selective antinociception when given icv injection at a dose of 10 nmol 20 min before mouse tail flick test. It is filed as functional.
Experiment [9] relates to Mus musculus. In words: Percent activity against delta selective antinociception when given icv injection at a dose of 10 nmol 20 min before the mouse tail flick test along with 4 nmol ICI 174864. It counts as functional.
For experiment [10], the species on record is Mus musculus. The experiment is described as follows: Antinociceptive action was evaluated by mouse tail flick assay at a dose of 100 nmol on 10 mice. It counts as functional.

The structures appear in SMILES notation.

Mu-type opioid receptor, sequence (P79350 whole entry): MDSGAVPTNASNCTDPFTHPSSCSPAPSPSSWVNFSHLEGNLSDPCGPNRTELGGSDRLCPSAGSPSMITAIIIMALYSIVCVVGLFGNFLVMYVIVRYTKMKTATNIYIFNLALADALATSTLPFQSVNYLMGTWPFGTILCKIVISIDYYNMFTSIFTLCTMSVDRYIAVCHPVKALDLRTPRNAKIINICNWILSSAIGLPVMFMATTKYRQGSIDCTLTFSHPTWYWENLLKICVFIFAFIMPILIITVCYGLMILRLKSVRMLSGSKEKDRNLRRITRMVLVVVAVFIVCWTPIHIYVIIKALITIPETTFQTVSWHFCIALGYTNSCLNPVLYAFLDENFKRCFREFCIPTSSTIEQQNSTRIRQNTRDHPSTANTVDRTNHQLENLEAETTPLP
Kappa-type opioid receptor, sequence (P41144 whole entry): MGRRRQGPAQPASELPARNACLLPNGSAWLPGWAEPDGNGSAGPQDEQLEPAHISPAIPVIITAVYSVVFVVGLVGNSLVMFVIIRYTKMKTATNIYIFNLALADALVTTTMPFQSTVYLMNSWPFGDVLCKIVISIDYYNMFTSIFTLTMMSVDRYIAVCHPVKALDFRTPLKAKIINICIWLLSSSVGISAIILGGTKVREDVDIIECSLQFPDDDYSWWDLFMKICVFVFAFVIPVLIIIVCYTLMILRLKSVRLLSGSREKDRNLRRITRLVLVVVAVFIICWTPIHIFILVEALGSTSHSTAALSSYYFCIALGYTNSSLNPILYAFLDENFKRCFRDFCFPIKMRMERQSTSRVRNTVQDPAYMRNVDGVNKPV

The Ki is the equilibrium dissociation constant of an inhibitor or competing ligand from its target. Regarding `CNC1CCC2(C)CC1(CO)Cc1ccc(O)cc12` (single isomer, unassigned; (-)), the Ki in experiment [1] stood at 380 nM; in experiment [2], 650 nM.

Regarding `CN1CNC2CCC3(C)CC2(Cc2ccc(O)cc23)C1` (stereo unspecified), the results for the Ki in experiment [1] and in experiment [2] were 27.7 nM and 17.2 nM, respectively.

In the case of `CNC1CCC2(C)CC1(CO)Cc1ccc(O)cc12` (single isomer, unassigned; (+)), the values for the Ki in experiment [1] and in experiment [2] were 42 nM and 440 nM, respectively.

Take `COCC12Cc3ccc(O)cc3C(C)(CCC1N(C)C)C2` (single isomer, unassigned; (-)): the inhibition constant (Ki) is 19.3 nM in experiment [1] and 60.9 nM in [2].

For the compound `CN1CC[C@]23c4c5ccc(O)c4O[C@H]2[C@@H](O)C=C[C@H]3[C@H]1C5` [MORPHINE], the Antinociception was determined as 65% in experiment [3] and 100% in experiment [4].

Turning to `CC12CCC(N)C(CO)(Cc3ccc(O)cc31)C2` (stereo in doubt; (+)-3b), the Ki was 41.2 nM in experiment [1] and more than 10000 nM in experiment [2].

As to `CC12CCC(N)C(CO)(Cc3ccc(O)cc31)C2` (single isomer, unassigned; (-)), the figures for the Ki in experiment [1] and in experiment [2] were 40.6 nM and 109 nM, respectively.

Consider `COCC12Cc3ccc(O)cc3C(C)(CCC1N)C2` (stereo in doubt; (dl)-22), for which the figures for the Ki in [1] and in experiment [2] were 1.99 nM and 6.62 nM, respectively. Also, in experiment [5], the Antinociception came to 74%.

For the compound `CN(C)C1CCC2(C)CC1(C)Cc1ccc(O)cc12` (single isomer, unassigned; (-)), the Ki in experiment [1] was 297 nM; in experiment [2], 409 nM.

In the case of `COCC12Cc3ccc(O)cc3C(C)(CCC1N)C2` (stereo in doubt; (+)3a), the values for the Antinociception in experiment [6] and in [7] were 58% and 13%, respectively. The Ki in [1] stood at 1.99 nM; in experiment [2], 80.8 nM.

Consider `COCC12Cc3ccc(O)cc3C(C)(CCC1N(C)C)C2` (single isomer, unassigned; (+)), for which the Ki in [1] turned out to be 25.2 nM; in experiment [2], 123 nM.

For the compound `CN(C)C1CCC2(C)CC1(CO)Cc1ccc(O)cc12` (single isomer, unassigned; (+)), the Ki was found to be 830 nM in [1] and 2900 nM in experiment [2].

For the compound `CN(C)C1CCC2(C)CC1(CO)Cc1ccc(O)cc12` (stereo in doubt; (-)-3c), the Ki in [1] came out at 870 nM; in experiment [2] it was 3800 nM.

`CN1CC23Cc4ccc(O)cc4C(C)(CCC12)C3` (single isomer, unassigned; (+)): the figures for the Ki in experiment [1] and in experiment [2] were 179 nM and 215 nM, respectively.

As to `CC1(C)SSC(C)(C)[C@@H](NC(=O)[C@@H](N)Cc2ccc(O)cc2)C(=O)NCC(=O)N[C@@H](Cc2ccccc2)C(=O)N[C@H]1C(=O)O`, the Activity in experiment [8] is on record as 55%; in experiment [9], 5%.

With `COC[C@]12Cc3ccc(O)cc3[C@](C)(CCc3nnnn31)C2`, the Ki in experiment [2] was more than 10000 nM.

For the compound `COCC12Cc3ccc(O)cc3C(C)(CCC1N)C2` (stereo in doubt; (-)-3a), the Ki in [1] is 2.29 nM; in experiment [2], 53.1 nM. In addition, the Antinociception in experiment [10] amounted to 37%.

`CN(C)C1CCC2(C)CC1(C)Cc1ccc(O)cc12` (single isomer, unassigned; (+)) gave a Ki in experiment [2] of 5960 nM. That is a single-digit micromolar value.

For the compound `CNCC12Cc3ccc(O)cc3C(C)(CCC1N)C2` (stereo unspecified), the Ki was determined as 91.6 nM in experiment [1] and 51.6 nM in [2].

In experiment [2], `COCC12Cc3ccc(O)cc3[C@](C)(CCCN1C)C2` (single isomer, unassigned) displayed a Ki of 795 nM.

The values above are taken from ChEMBL document CHEMBL1129309, “Asymmetric syntheses, opioid receptor affinities, and antinociceptive effects of 8-amino-5,9-methanobenzocyclooctenes, a new class of structural analogues of the morphine alkaloids” (J Med Chem, 1996).
